This assay addresses Recombinant human ULK1 (1-649) (Homo sapiens (Human), UniProt O75385). The experiment in a line: ULK1 ADP Glo kinase activity assay, new method (ULKtide peptide substrate). The note with it: 25° C., 40 minutes, read-out: ULK1 biochemical IC50. How it is done: Recombinant human ULK1 (1-649) protein expressed in Sf9 insect cells was obtained from SignalChem (Vancouver, BC), catalog #U01-11G. Active kinase was purified via N-terminal GST tag to >85% purity.
ADP GLO Kinase Assay Reagents were obtained from Promega Corp (Madison, WI), catalog #V9104.
Synthetic peptide substrate (ULKtide) with the amino acid sequence YANWLAASIYLDGKKK was obtained from ThermoFisher Scientific USA.
ULK1 inhibitor potency was determined using the luminescent ADP Glo Kinase Assay (Promega), a universal ADP detection system that measures kinase activity by quantifying the amount of ADP produced during a kinase reaction. ULK1 kinase reactions are performed in a standard 96-well microplate (20 μL reaction volume) at 25° C. for 40 minutes in the presence or absence of the test compound (12-point dilution series starting at 10 μM). Addition of peptide substrate and ATP initiates the kinase reaction.
The standard ADP Glo assay is performed in two steps. In step one, following the kinase reaction, an equal volume of ADP-Glo™ Reagent (20 μL) is added to terminate the kinase reaction and deplete the remaining ATP. In the second step, the Kinase Detection Reagent (10 μL) is added to simultaneously convert ADP to ATP and allow the newly synthesized ATP to be measured using a luciferase/luciferin reaction. Step two of the ADP Glo assay is performed in a white 384-well plate (20 μL final volume). Thirty minutes after the addition of the Detection reagent, light generated from the luciferase reaction is measured (1 second exposure) using a microplate compatible luminometer (CLARIOstar, BMG Labtech).
Inhibition of ULK1 kinase activity is determined for each test compound by comparison to DMSO only control wells. Inhibitor IC50 was calculated by plotting the change in luminescence after 30 minutes (response) versus inhibitor concentration (in log molar) then applying the four-parameter variable slope curve fit (GraphPad Prism). Inhibition of ULK1 in biochemical assay is found in Table 4.
On the technique in general: ADP-Glo turns the ADP formed in a reaction into a luminescent signal.

17 molecules from patent US20250144094A1 (Erasca, Inc., priority 2021, published 2025) can be followed below.

The structures appear in SMILES notation.

Recombinant human ULK1 (1-649), sequence (O75385 1-649): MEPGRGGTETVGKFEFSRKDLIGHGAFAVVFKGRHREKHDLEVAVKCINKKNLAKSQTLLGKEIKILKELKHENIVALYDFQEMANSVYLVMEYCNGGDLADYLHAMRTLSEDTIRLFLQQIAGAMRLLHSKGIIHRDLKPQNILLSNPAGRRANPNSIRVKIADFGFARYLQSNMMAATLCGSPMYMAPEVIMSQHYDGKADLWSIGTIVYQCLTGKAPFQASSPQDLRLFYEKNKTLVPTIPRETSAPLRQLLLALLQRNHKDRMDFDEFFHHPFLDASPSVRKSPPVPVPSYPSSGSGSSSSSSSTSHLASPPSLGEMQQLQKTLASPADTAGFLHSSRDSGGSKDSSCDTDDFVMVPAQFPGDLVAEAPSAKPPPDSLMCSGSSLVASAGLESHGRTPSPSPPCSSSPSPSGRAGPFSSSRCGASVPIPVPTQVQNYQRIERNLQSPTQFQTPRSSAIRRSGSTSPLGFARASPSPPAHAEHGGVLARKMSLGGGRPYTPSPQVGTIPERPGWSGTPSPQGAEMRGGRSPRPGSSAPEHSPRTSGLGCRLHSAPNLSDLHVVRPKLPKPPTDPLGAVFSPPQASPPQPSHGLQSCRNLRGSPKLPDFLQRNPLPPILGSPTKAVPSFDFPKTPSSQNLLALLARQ

The IC50 is the concentration at which inhibition is half-maximal. For the molecule `CN1CCc2cc(Cl)c(Nc3ncc(C(F)(F)F)c(-c4cc5c(s4)C(=O)N(C)CCS5(=O)=O)n3)cc2C1` [Example 169], the IC50 was no more than 5 nM.
As for `CN1CCS(=O)(=O)c2cc(-c3nc(Nc4cc5nnn(C)c5cc4Cl)ncc3C(F)(F)F)sc2C1=O` [Example 200, 7-(2-((6-chloro-1-methyl-1H-benzo[d][1,2,3]triazol-5-yl)amino)-5-(trifluoromethyl)pyrimidin-4-yl)-4-methyl-3,4-dihydrothieno[2,3-f][1,4]thiazepin-5(2H)-one 1,1-dioxide], the concentration for half-maximal inhibition (IC50) was greater than 100 nM.
For `Cc1nn(CCN(C)C)cc1Nc1ncc(C(F)(F)F)c(-c2cc3c(s2)C(=O)N(C)CCS3(=O)=O)n1` [Example 187, 7-(2-((1-(2-(dimethylamino)ethyl)-3-methyl-1H-pyrazol-4-yl)amino)-5-(trifluoromethyl)pyrimidin-4-yl)-4-methyl-3,4-dihydrothieno[2,3-f][1,4]thiazepin-5(2H)-one 1,1-dioxide], the IC50 was no more than 5 nM.
As for `O=C1c2sc(-c3nc(Nc4cc5c(cc4C4CC4)CN(CCOC(F)(F)F)CC5)ncc3C(F)(F)F)cc2S(=O)(=O)CCN1C1COC1` [Example 312, 7-(2-((7-cyclopropyl-2-(2-(trifluoromethoxy)ethyl)-1,2,3,4-tetrahydroisoquinolin-6-yl)amino)-5-(trifluoromethyl)pyrimidin-4-yl)-4-(oxetan-3-yl)-3,4-dihydrothieno[2,3-f][1,4]thiazepin-5(2H)-one 1,1-dioxide], the figure is 5 to 10 nM.
`CCc1cc(N2C[C@H]3C[C@@H]2CN3)ccc1Nc1ncc(C(F)(F)F)c(-c2cc3c(s2)C(=O)N(C2COC2)CCS3(=O)=O)n1` [Example 336, 7-(2-((4-((1R,4R)-2,5-diazabicyclo[2.2.1]heptan-2-yl)-2-ethylphenyl)amino)-5-(trifluoromethyl)pyrimidin-4-yl)-4-(oxetan-3-yl)-3,4-dihydrothieno[2,3-f][1,4]thiazepin-5(2H)-one 1,1-dioxide]: the IC50 was no more than 5 nM.
Consider `CCc1cc2c(cc1Nc1ncc(C(F)(F)F)c(-c3cc4c(s3)C(=O)N(C3CC3)CCS4(=O)=O)n1)CCN(CC1CC1)C2` [Example 242, 4-cyclopropyl-7-(2-((2-(cyclopropylmethyl)-7-ethyl-1,2,3,4-tetrahydroisoquinolin-6-yl)amino)-5-(trifluoromethyl)pyrimidin-4-yl)-3,4-dihydrothieno[2,3-f][1,4]thiazepin-5(2H)-one 1,1-dioxide], for which the IC50 is no more than 5 nM.
On to `O=C1c2sc(-c3nc(Nc4cc5c(cc4C4CC4)CNCC5)ncc3C(F)(F)F)cc2S(=O)(=O)CCN1C1CC1` [Example 209, 4-cyclopropyl-7-(2-((7-cyclopropyl-1,2,3,4-tetrahydroisoquinolin-6-yl)amino)-5-(trifluoromethyl)pyrimidin-4-yl)-3,4-dihydrothieno[2,3-f][1,4]thiazepin-5(2H)-one 1,1-dioxide], for which the 50% inhibitory concentration (IC50) is no more than 5 nM.
For `O=C1c2sc(-c3nc(Nc4ccc(C5CCNCC5)cc4C4CC4)ncc3C(F)(F)F)cc2S(=O)(=O)CCN1C1CC1` [Example 240, 4-cyclopropyl-7-(2-((2-cyclopropyl-4-(piperidin-4-yl)phenyl)amino)-5-(trifluoromethyl)pyrimidin-4-yl)-3,4-dihydrothieno[2,3-f][1,4]thiazepin-5(2H)-one 1,1-dioxide], the 50% inhibitory concentration (IC50) is no more than 5 nM.
For `CCc1cc2c(cc1Nc1ncc(C(F)(F)F)c(-c3cc4c(s3)C(=O)N(C3CC3)CCS4(=O)=O)n1)CCN(CC1COC1)C2` [Example 277, 4-cyclopropyl-7-(2-((7-ethyl-2-(oxetan-3-ylmethyl)-1,2,3,4-tetrahydroisoquinolin-6-yl)amino)-5-(trifluoromethyl)pyrimidin-4-yl)-3,4-dihydrothieno[2,3-f][1,4]thiazepin-5(2H)-one 1,1-dioxide], the half-inhibitory concentration (IC50) is no more than 5 nM.
On to `CCc1cc(N2CCN(CC)CC2)ccc1Nc1ncc(C(F)(F)F)c(-c2cc3c(s2)C(=O)N(C)CCS3(=O)=O)n1` [Example 197, 7-(2-((2-ethyl-4-(4-ethylpiperazin-1-yl)phenyl)amino)-5-(trifluoromethyl)pyrimidin-4-yl)-4-methyl-3,4-dihydrothieno[2,3-f][1,4]thiazepin-5(2H)-one 1,1-dioxide], for which the IC50 is no more than 5 nM.
The same measure for `C[C@H]1CN(c2ccc(Nc3ncc(C(F)(F)F)c(-c4cc5c(s4)C(=O)N(C4COC4)CCS5(=O)=O)n3)c(C3CC3)c2)C[C@H](C)N1` [Example 344, 7-(2-((2-Cyclopropyl-4-((3S,5S)-3,5-dimethylpiperazin-1-yl)phenyl)amino)-5-(trifluoromethyl)pyrimidin-4-yl)-4-(oxetan-3-yl)-3,4-dihydrothieno[2,3-f][1,4]thiazepin-5(2H)-one 1,1-dioxide]: no more than 5 nM.
Turning to `CN1CCC(c2ccc(Nc3ncc(C(F)(F)F)c(-c4cc5c(s4)C(=O)N(C4CC4)CCS5(=O)=O)n3)c(C3CC3)c2)CC1` [Example 252, 4-cyclopropyl-7-(2-((2-cyclopropyl-4-(1-methylpiperidin-4-yl)phenyl)amino)-5-(trifluoromethyl)pyrimidin-4-yl)-3,4-dihydrothieno[2,3-f][1,4]thiazepin-5(2H)-one 1,1-dioxide], the half-inhibitory concentration (IC50) was no more than 5 nM.
Take `CCc1cc(N2CCN[C@@H](CO)C2)ccc1Nc1ncc(C(F)(F)F)c(-c2cc3c(s2)C(=O)N(C2CC2)CCS3(=O)=O)n1` [Example 407, (R)-4-cyclopropyl-7-(2-((2-ethyl-4-(3-(hydroxymethyl)piperazin-1-yl)phenyl)amino)-5-(trifluoromethyl)pyrimidin-4-yl)-3,4-dihydrothieno[2,3-f][1,4]thiazepin-5(2H)-one 1,1-dioxide]: the half-inhibitory concentration (IC50) was no more than 5 nM.
`CCc1cc(N2CCN(CC3COC3)CC2)ccc1Nc1ncc(C(F)(F)F)c(-c2cc3c(s2)C(=O)N(C2CC2)CCS3(=O)=O)n1` [Example 266, 4-cyclopropyl-7-(2-((2-ethyl-4-(4-(oxetan-3-ylmethyl)piperazin-1-yl)phenyl)amino)-5-(trifluoromethyl)pyrimidin-4-yl)-3,4-dihydrothieno[2,3-f][1,4]thiazepin-5(2H)-one 1,1-dioxide]: the 50% inhibitory concentration (IC50) was no more than 5 nM.
Take `CCc1cc2c(cc1Nc1ncc(C(F)(F)F)c(-c3cc4c(s3)C(=O)N(C3CCC3)CCS4(=O)=O)n1)CNCC2` [Example 221, 4-cyclobutyl-7-(2-((6-ethyl-1,2,3,4-tetrahydroisoquinolin-7-yl)amino)-5-(trifluoromethyl)pyrimidin-4-yl)-3,4-dihydrothieno[2,3-f][1,4]thiazepin-5(2H)-one 1,1-dioxide]: the IC50 was no more than 5 nM.
As to `CN1CCC(c2ccc(Cl)c(Nc3ncc(C(F)(F)F)c(-c4cc5c(s4)C(=O)N(C)CCS5(=O)=O)n3)c2)CC1` [Example 150, 7-(2-((2-chloro-5-(1-methylpiperidin-4-yl)phenyl)amino)-5-(trifluoromethyl)pyrimidin-4-yl)-4-methyl-3,4-dihydrothieno[2,3-f][1,4]thiazepin-5(2H)-one 1,1-dioxide], the IC50 lay within 10 to 50 nM.
With `Cc1nn(C2CCNCC2)cc1Nc1ncc(C(F)(F)F)c(-c2cc3c(s2)C(=O)N(C)CCS3(=O)=O)n1` [Example 166, 4-methyl-7-(2-((3-methyl-1-(piperidin-4-yl)-1H-pyrazol-4-yl)amino)-5-(trifluoromethyl)pyrimidin-4-yl)-3,4-dihydrothieno[2,3-f][1,4]thiazepin-5(2H)-one 1,1-dioxide], the half-inhibitory concentration (IC50) was greater than 100 nM.
